These results are taken from patent US20050209104A1, “Dinoflagellate karlotoxins, methods of isolation and uses thereof” (priority 2002, published 2005).

≈ marks a conversion by molar mass, not a printed value. Like-named read-outs stand apart in the source and are kept apart here. Marks after values point to notes of the source that are not given here.

The subject of data set [1] is Karlodinium micrum (CCMP 1974). Briefly: Dinoflagellate lysis due to copper sulfate and potassium permanganate (K. micrum). Conditions: exposures ≧2 mg L^−1 and only after 2 hours. The data set is classed as cell-based.
The subject of another data set is striped bass fingerlings. Conditions: comparable salinities, higher alkalinities (Reardon and Harrell, 1990); cited from earlier work.
For data set [2], the system named is rainbow trout erythrocytes. Conditions: for presence of hemolytic activity of copper solution: mixed with equal volume of 5% erythrocyte suspension. Here is the method:
The filtrate from water samples collected on Feb. […] Environmental water samples were allowed to thaw to room temperature and passed through a Sep-Pak Plus tC18 disposable cartridge (Waters Corp., Milford Mass.), attached to a vacuum manifold. The column was pre-equilibrated with methanol (20 ml) followed by H2O (20 ml). The cartridges were eluted with the following concentrations of MeOH/H2O: 100% H2O, 40%, 60%, 80%, and 100% MeOH (12 ml ea^−1). An aliquot of each elution was diluted, using Tris buffer +CaCl2, to give final dilutions ranging from 6 to 60% of original concentrations. […] The occurrence of hemolytic activity was determined by the absorbance of released hemoglobin, measured at 540 nm. Saponin (10 μg) served as a positive hemolysin control. Treatments were run in quadruplicate.
A hemolytic assay based on the lysis of fish erythrocytes was utilized to screen for bioactive materials. Cultures and culture fractions that were positive in the hemolytic assay were tested further using assays for ichthyotoxicity and cytotoxicity.
Blood was extracted from the caudal vein of rainbow trout (Oncorhynchus mykis) provided by the Center of Marine Biotechnology's Aquaculture Research Center. Needles were heparin (Sigma Chemical Co., St. Louis Mo.) treated and 10 units ml^−1 of additional heparin was added to whole blood samples to prevent clotting. […] Buffer pH was adjusted to 7.4 at 10° C. with 1N HCl, then filter sterilized (0.22 μm). […] Suspensions were stored at 4° C. for no longer than 10 days.
Hemolytic assays were performed by diluting test material in Tris buffer +CaCl2 (100 μl total) and adding this to a 5% erythrocyte suspension (100 μl). […] Assays were incubated on an orbital shaker (80-100 rpm) at 20° C. for 1 hour. Plates were then centrifuged at 2500 g for 5 min. and the supernatant (100 μl) was transferred to another flat bottom 96 well polystyrene plate, where the absorbance of released hemoglobin was read at 540 nm. Saponin (10 μg) (from Quillaja bark; Sigma Chemical Co., St. Louis Mo.) was used as a positive hemolysin control All treatments were run in quadruplicate.
LC50values and ranges were determined by Probit analysis (SPSS Base 10.0, SPSS Inc., Chicago Ill.).
Blood was extracted from the caudal vein of rainbow trout (Oncorhynchus mykis). […] Buffer pH was adjusted to 7.4 at 10° C. with 1N HCl, then filter sterilized (0.22 um). […] Blood suspensions were stored at 4° C. for no longer than 10 days.
Hemolysis assays were performed by diluting test material in Tris buFFer +CaCl2 (100 ul) and adding this to 100 ul of a 5% erythrocyte suspension for a total assay volume of 200 ul. […] Plates were incubated on an orbital shaker (80-100 rpm) at 20° C. for 1 hour. Plates were then centrifuged at 2000 g for 5 min. and the supernatant (100 ul) was transferred to a new flat bottom 96 well polystyrene plate, where the absorbance of released hemoglobin was read at 540 nm. Saponin (from Quillaja bark; Sigma Chemical Co., St. Louis Mo.) was used as a positive hemolysin control. Percent hemolysis (0-100%) was calculated from comparison to un-treated controls and samples treated with 10 ug saponin. All treatments were run in quadruplicate.
Hemolytic LC50 values were calculated from a dilution series of KmTx 2 and amphotericin B. LC50 values and ranges were determined by Probit analysis using a SPSS Base 10.0 statistical software package (SPSS Inc., Chicago, Ill.).

Data set [3] relates to sheepshead minnow (Cyprinodon variegatus) larvae. Briefly: Static acute larval fish ichthyotoxicity bioassay (sheepshead minnow). It counts as in vivo. Conditions: algicide alone (control larvae without K. micrum). As to the method:
Ichthyotoxicity was evaluated using a static, acute (24-48 hour), small volume (2 ml), larval fish bioassay. Exposures were performed at 20° C. in 24-well non-tissue culture treated polystyrene plates (Becton Dickinson Labware, Franklin Lakes N.J.). Two species were utilized for ichthyotoxicity testing, zebrafish (Danio rerio) and sheepshead minnows (Cyprinodon variegatus), depending on their availability and salinity tolerance, with sheepshead minnows being tolerant to a wider range of salinities, but zebrafish being more readily obtainable in large numbers. Therefore, zebrafish, 5-<48 hrs old post-hatch, were used for toxic fraction testing, while sheepshead minnows, 3-<24 hours old post-hatch, were used to test whole dinoflagellate cultures. Larvae were not fed prior to or during testing. Previous experiments had shown that, at the biomass/water ratios used for each species, oxygen saturation remained >60% during the 48 hour exposure, as recommended in the Standard Guide for Conducting Acute Toxicity Tests with Fishes, Macroinvertebrates, and Amphibians (ASTM, 1992). All treatments were run in triplicate.
This experiment was run in triplicate. For these experiments, 12 psu ASW (Instant Ocean Brand) with added f/2-Si nutrient mixture (Guillard, 1975) and 1.5% soil extract and 0.3% chicken manure extract (alkalinity 75 mg L^−1 CaCO3) was used as the diluent. […]

In data set [4] the test system is Candida albicans (ATCC 14053). Briefly: Anti-fungal broth microdilution assay (yeast). The data set is classed as cell-based. Here is the method:
(§1) The following fungal strains were purchased from the American Type Culture Collection (Manassas, Va.), Aspergillus niger (ATCC 1004) as a representative filamentous fungi, and Candida albicans (ATCC 14053) as a representative yeast. Assays were performed according to the following National Committee for Clinical Laboratory Standards documents; M27-A2 Reference Method for Broth Dilution Antifungal Susceptibility Testing of Yeasts; Approved Standard—Second Edition([NCCLS, 2002), and M38-A Reference Method for Broth Dilution Antifungal Susceptibility Testing of Filamentous Fungi; Approved Standard (NCCLS, 2002). Procedures for the broth microdilution modification were followed for both species with the following exceptions; A. niger stocks were maintained on Potato Dextrose Agar at 25° C., while C. albicans was maintained on Yeast Malt Agar at 28° C., both according to ATCC recommendations. Amphotericin B was used as a positive control. Microdilution assays were performed in HyQ-RPMI-1640 media (HyClone, Logan, Utah.), with 2.05 mM L-glutamine, without sodium bicarbonate, pH 7.2 using dilutions of 1 mg/ml DMSO stocks of KmTx 2 and amphotericin B.
(§2) The following concentrations were tested for both KmTx2 and amphotericin B: 0.0625, 0.125, 0.25, 0.5, 1, 2, 4, 8, and 16 μg/ml. A maximum of 1.6% DMSO was added to any given well. Plates were incubated at 25 and 28° C., respectively, for A. niger and C. albicans. […] Amphotericin B and all culture media were purchased from Sigma-Aldrich (St. Louis, Mo.).
Background: Broth dilution looks for growth in wells or tubes with falling amounts of substance.

For data set [5], the system named is Aspergillus niger (ATCC 1004). Briefly: Anti-fungal broth microdilution assay (filamentous fungi). The data set is classed as cell-based. As to the method:
as §1, §2

Data set [6] deals with rat embryonic fibroblast (REF 52) cells. Nature of the data set: Ion permeation measurement, Ca^2+ flux with fura-2 (fibroblasts). The following applies: 0.2 μM. The data set is classed as cell-based. As to the method: The following cell types were tested for toxicity due to KmTx 2; rat embryonic fibroblast, rat intestional epithelial, and isolated rabbit primary sensory neurons. Cells were cultured on No. 1 glass coverslips and loaded with fluorescent indicator (fura-2) and were examined on an inverted epifluorescence microscope (model Diaphot; 40×CF Fluor objective, N.A. 1.30; Nikon Corp.) coupled to a spectrofluorometer (model CM1T10I, SPEX Industries) operating in the microfluorometry mode. Cells were bathed in 4 ml of Dulbecco's modified Eagle's medium (DMEM) buffered with HEPES (pH 7.4). KmTx 2 (stock solution in DMSO) was directly bath-applied with gentle convective mixing. Fura-2 was alternately excited at 340 and 380 nm. Fluorescence emission was passed through a 510-nm bandpass filter before photometric quantitation. DATAMAX software (SPEX Industries) was used for data acquisition and instrument control. Origin software (OriginLab Corp.) was used for data reduction and analysis

The conditions of data set [7]: for % DECREASE of measured free copper: n = 2. As to the method: The first experiment involved the addition of EDTA ([…]) [as EDTA +4 Na·2 H2O ] to 0.9% NaCl solutions containing CuSO4·5 H2O (0.1, 0.5, 2.5, or 10 mg L^−1 Cu). Free Cu was measured using the porphyrin method (range 0-210 μg L^−1 ) (HACH, Loveland Colo.). […] Each solution, with and without EDTA, was assayed for hemolytic activity.

[8] abbreviates: any concentration (0.0625-16 μg/ml) after 24 hours.

Regarding `O.O.O.O.O.O=S(=O)([O-])[O-].[Cu+2]` [CuSO4, CuSO4·5 H2O], the Cell lysis result in data set [1] is given as “occurred in K. micrum”. The “96h LC50” value in the data set with striped bass fingerlings is “ca. 8 mg L^−1”. For the same molecule, the “presence of hemolytic activity of copper solution” value in data set [2] (copper 5 mg L^−1 without EDTA) is listed as 4.957*; in data set [2] (copper 20 mg L^−1 without EDTA) it was 21.110*. In addition, in data set [3], the “mortality or epithelial damage of sheepshead minnow larvae” value is reported as “No mortality or epithelial damage”.
Take `C[C@@H]1[C@H](O)[C@@H](C)/C=C/C=C/C=C/C=C/C=C/C=C/C=C/[C@H](O[C@@H]2O[C@H](C)[C@@H](O)[C@H](N)[C@@H]2O)C[C@@H]2O[C@](O)(C[C@@H](O)C[C@@H](O)[C@H](O)CC[C@@H](O)C[C@@H](O)CC(=O)O[C@H]1C)C[C@H](O)[C@H]2C(=O)O` [amphotericin B, reference compound]: the growth entry in data set [4] (setting [8]) and in data set [5] (setting [8]) was “no growth was observed” each time. Moreover, the “Minimal inhibitory concentration (MIC)” value in data set [4] (lowest dose with no growth after 96 hours, 28° C.) is 0.125 mg/L (≈ 0.135 µM); in data set [5] (lowest dose with no growth after 96 hours, 25° C.), 0.5 mg/L (≈ 0.541 µM). Further, the “hemolytic LC50” value in data set [2] (probit analysis of dilution series) was 3.759 mg/L.
On to `NC(=O)CC[C@@H]1NC(=O)[C@H](Cc2ccccc2)NC(=O)[C@H](Cc2ccc(O)cc2)NC(=O)[C@@H](N)CSSC[C@@H](C(=O)N2CCC[C@H]2C(=O)N[C@@H](CCCN=C(N)N)C(=O)NCC(N)=O)NC(=O)[C@H](CC(N)=O)NC1=O` [vasopressin, reference compound], for which the “cytosolic Ca^2+ levels” value in data set [6] was “spike in cytosolic Ca^2+ levels followed by rapid decline to level above baseline”.
With `O.O.O=C([O-])CN(CCN(CC(=O)[O-])CC(=O)[O-])CC(=O)[O-].[Na+].[Na+].[Na+].[Na+]` [EDTA, EDTA +4 Na·2 H2O], the “free Cu chelated” value in data set [7] (EDTA 2 mM, all concentrations tested) is reported as above 90%. Further, the “% DECREASE of measured free copper” value in data set [7] (copper 0.2 mg L^−1, EDTA 2 mM) was determined as 96.3%; in data set [7] (copper 1 mg L^−1, EDTA 2 mM), 95.9%; in data set [7] (copper 5 mg L^−1, EDTA 2 mM), 90.4%; in data set [7] (copper 20 mg L^−1, EDTA 2 mM), 92.6%. Moreover, the “effect of EDTA on hemolytic activity due to Cu alone” value in data set [2] was “completely remove hemolytic activity”.
